From patent publication US11179372B2, “Isoxazoline solution containing vitamin E for use with sanitized drinking water” (Intervet Inc., priority 2015, dated 2021)

Tests used:
[1] = Solubility and mixing of protectors in the base pharmaceutical composition; details: for Solubility in the base pharmaceutical composition: 0.95% w/w Fluralaner in Transcutol V and Tween 80 25:75
Protocol: To the base of a pharmaceutical composition as described herein, comprising isoxazoline, solvent, and surfactant, different compounds were added as protectors to prevent breakdown of isoxazoline when diluted in water with a water sanitizer such as hypochlorite.
Where the protector amount was zero, this sample served as unprotected control sample. The Fluralaner level was determined using UHPLC. The alpha-tocopherol used was alpha-tocopherol EP (Fluka).
For samples containing a protector, Fluralaner was added to a mixture of Transcutol V, Tween 80 and protector, and then mixed to dissolve.

[2] = Accelerated stability testing of pharmaceutical composition comprising a protector; type: physicochemical; details: for Appearance of the pharmaceutical composition with protector on storage: stability results up to 4 months, tests terminated
Protocol: Similar to the experiments described in Example 3 above, where the effect of water quality on Fluralaner-containing medicated drinking water was tested; here samples of the pharmaceutical composition were tested for an effect of the addition of a protector, on their stability during prolonged storage.
To test the long term stability of the pharmaceutical composition with a protector, some samples were stored under conditions of accelerated ageing. Samples of the pharmaceutical composition with or without one of the protectors, were filled out in portions of 7 gram each, in 10 ml glass vials, sealed with rubber stoppers, and stored under different conditions: 2-8° C.; 30° C./65% RH; 40° C./75% RH, and 50° C. […]

[3] = Prevention of degradation by oxidizing sanitizer (hypochlorite) in medicated drinking water; type: physicochemical; details: for Colour during incubation in sanitized water: a few days into the incubation
Protocol: The Fluralaner level was determined using UHPLC. The alpha-tocopherol used was alpha-tocopherol EP (Fluka).
To prepare the test samples, the required amounts of Transcutol and Tween were measured, combined in a beaker at room temperature, and mixed magnetically. Next, when no protector was added, the required amount of Fluralaner was weighed, added, and mixed until complete dissolution, which usually required about 10 minutes, at 70% speed. […] The complete dissolution was verified visually. Next the density of the resulting solution was checked with a Densimeter, at 20° C.
To test the capacity of the different protectors to prevent degradation of Fluralaner in medicated drinking water by an oxidising sanitizer, samples of the pharmaceutical composition as prepared above were diluted to different concentrations, and incubated with different amounts of hypochlorite. Concentrations of Fluralaner in medicated drinking water used were: 1, 5, and 10 μg/ml.
The hypochlorite used was from a 13% sodium hypochlorite solution (Acros Organics), which was prepared into samples with a concentration of hypochlorite of: 0, 0.5, 2, 5, or 10 ppm, wherein 1 ppm equals 20 μM. Samples without hypochlorite served as positive controls. While the dilutions of hypochlorite were made in purified water, one additional sample at 5 ppm hypochlorite was prepared in standard tap water (Angers, France). Control samples were tested at day zero, all others were tested after an incubation for 7 days at 40° C./75% RH.
The concentration of protector in the test sample was dependent of the dilution factor of the concentrated Fluralaner composition applied: 1:10,000, 1:2000, or 1:1000, respectively.

SMILES | Solubility in the base pharmaceutical composition [1] | Colour during incubation in sanitized water [3] | Appearance of the pharmaceutical composition with protector on storage [2] | further results
O=S([O-])[O-].[Na+].[Na+] [Na-sulphite, Sodium sulphite] | not soluble |  |  | 
CCCCCCCCCCCCOC(=O)c1cc(O)c(O)c(O)c1 [Lauryl gallate, dodecyl gallate] | soluble |  |  | Appearance after mixing in the base pharmaceutical composition [1]: orange coloration; Appearance of the pharmaceutical composition with protector ([2]; shortly after preparation): orange coloration appeared
O=S([O-])S(=O)(=O)[O-].[Na+].[Na+] [Na-metabisulfite, Sodium metabisulfite] | not soluble |  |  | 
Cc1cc(C(C)(C)C)c(O)c(C(C)(C)C)c1 [BHT, butylated hydroxytoluene] | soluble | colour change did develop | discoloration | 
Cc1c(C)c2c(c(C)c1O)CC[C@@](C)(CCC[C@H](C)CCC[C@H](C)CCCC(C)C)O2 [alpha-tocopherol] |  |  |  | Protection of Fluralaner from degradation in sanitized drinking water ([3]; Fluralaner 1 μg/ml and 10 ppm hypochlorite, 7 days): could not protect; Protection of Fluralaner from degradation in sanitized drinking water ([3]; Fluralaner at 5 or 10 μg/ml, up to 7 days, 40° C., up to 10 ppm hypochlorite): completely protect; Stability of pharmaceutical composition, interaction by protector ([2]; stability data up to 18 months): lack of interaction; Level of alpha-tocopherol in pharmaceutical composition on storage ([2]; up to 8 months, 2-8° C., 30° C./65% RH, 40° C./75% RH, 50° C.): no significant reduction
COc1ccc(O)c(C(C)(C)C)c1 [BHA, butylated hydroxyanisole] | soluble | colour change did develop | discoloration | 
